Measured values taken from patent publication US11767310B2, “Nicotinamide RIPK1 inhibitors” (AbbVie Inc., priority 2021, dated 2023).
Where two headings read alike, the source gives them in different places.

Assays:
Assay in all cases: Kinase binding screen
Settings in all cases: read-out: Percent Control at 100 nM Compound Concentration
[1] = target: ZAK (Homo sapiens (Human), UniProt Q9NYL2)
[2] = target: SRMS (Homo sapiens (Human), UniProt Q9H3Y6)
[3] = target: ERBB2 (Homo sapiens (Human), UniProt P04626)
[4] = target: CASK (Homo sapiens (Human), UniProt O14936)
[5] = target: FAK (Homo sapiens (Human), UniProt Q05397)
[6] = target: PIK4CB (Homo sapiens (Human), UniProt Q9UBF8)
[7] = target: TESK1 (Homo sapiens (Human), UniProt Q15569)
[8] = target: PIM2 (Homo sapiens (Human), UniProt Q9P1W9)
[9] = target: RSK1(Kin.Dom.1-N-terminal) (Homo sapiens (Human), UniProt Q15418)
[10] = target: VRK2 (Homo sapiens (Human), UniProt Q86Y07)
[11] = target: TIE1 (Homo sapiens (Human), UniProt P35590)
[12] = target: PRKG2 (Homo sapiens (Human), UniProt Q13237)
[13] = target: ADCK3 (Homo sapiens (Human), UniProt Q8NI60)
[14] = target: TSSK3 (Homo sapiens (Human), UniProt Q96PN8)
[15] = target: TBK1 (Homo sapiens (Human), UniProt Q9UHD2)
[16] = target: NEK3 (Homo sapiens (Human), UniProt P51956)
[17] = target: FLT3(N841I) (Homo sapiens (Human), UniProt P36888, N841I)
[18] = target: FLT1 (Homo sapiens (Human), UniProt P17948)
[19] = target: WNK3 (Homo sapiens (Human), UniProt Q9BYP7)
[20] = target: MST2 (Homo sapiens (Human), UniProt Q13188)
[21] = target: SYK (Homo sapiens (Human), UniProt P43405)
[22] = target: CAMK2A (Homo sapiens (Human), UniProt Q9UQM7)
[23] = target: ADCK4 (Homo sapiens (Human), UniProt Q96D53)
[24] = target: EGFR(G719S) (Homo sapiens (Human), UniProt P00533, G719S)
[25] = target: ALK (Homo sapiens (Human), UniProt Q9UM73)
[26] = target: CHEK2 (Homo sapiens (Human), UniProt O96017)
[27] = target: CSNK1A1 (Homo sapiens (Human), UniProt P48729)
[28] = target: RIOK2 (Homo sapiens (Human), UniProt Q9BVS4)
[29] = target: PKN1 (Homo sapiens (Human), UniProt Q16512)
Chain of PKN1 (Q16512 whole entry): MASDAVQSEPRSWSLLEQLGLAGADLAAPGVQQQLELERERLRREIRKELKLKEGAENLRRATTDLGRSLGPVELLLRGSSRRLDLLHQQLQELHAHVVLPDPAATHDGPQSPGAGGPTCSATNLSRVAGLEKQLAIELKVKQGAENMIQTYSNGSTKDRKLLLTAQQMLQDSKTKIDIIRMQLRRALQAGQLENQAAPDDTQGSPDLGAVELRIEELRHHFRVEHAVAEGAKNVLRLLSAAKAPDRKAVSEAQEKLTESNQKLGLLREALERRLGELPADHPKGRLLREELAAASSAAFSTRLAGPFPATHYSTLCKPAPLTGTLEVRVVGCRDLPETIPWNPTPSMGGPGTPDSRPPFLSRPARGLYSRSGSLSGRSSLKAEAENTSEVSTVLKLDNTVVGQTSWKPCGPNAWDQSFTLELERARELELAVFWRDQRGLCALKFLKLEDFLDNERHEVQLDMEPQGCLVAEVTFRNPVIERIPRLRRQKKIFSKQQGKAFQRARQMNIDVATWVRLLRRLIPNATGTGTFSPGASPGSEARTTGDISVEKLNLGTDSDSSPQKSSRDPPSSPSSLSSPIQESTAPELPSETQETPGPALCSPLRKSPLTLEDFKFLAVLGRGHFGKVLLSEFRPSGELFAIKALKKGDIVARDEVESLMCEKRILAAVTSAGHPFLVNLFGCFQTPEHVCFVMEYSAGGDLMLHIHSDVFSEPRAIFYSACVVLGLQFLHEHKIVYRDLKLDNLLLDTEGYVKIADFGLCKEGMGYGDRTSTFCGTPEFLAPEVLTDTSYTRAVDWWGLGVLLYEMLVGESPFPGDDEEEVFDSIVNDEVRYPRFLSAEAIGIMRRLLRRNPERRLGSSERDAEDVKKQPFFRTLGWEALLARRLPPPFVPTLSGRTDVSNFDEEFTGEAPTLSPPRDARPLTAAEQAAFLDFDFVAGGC

Chain of ADCK4 (Q96D53 whole entry): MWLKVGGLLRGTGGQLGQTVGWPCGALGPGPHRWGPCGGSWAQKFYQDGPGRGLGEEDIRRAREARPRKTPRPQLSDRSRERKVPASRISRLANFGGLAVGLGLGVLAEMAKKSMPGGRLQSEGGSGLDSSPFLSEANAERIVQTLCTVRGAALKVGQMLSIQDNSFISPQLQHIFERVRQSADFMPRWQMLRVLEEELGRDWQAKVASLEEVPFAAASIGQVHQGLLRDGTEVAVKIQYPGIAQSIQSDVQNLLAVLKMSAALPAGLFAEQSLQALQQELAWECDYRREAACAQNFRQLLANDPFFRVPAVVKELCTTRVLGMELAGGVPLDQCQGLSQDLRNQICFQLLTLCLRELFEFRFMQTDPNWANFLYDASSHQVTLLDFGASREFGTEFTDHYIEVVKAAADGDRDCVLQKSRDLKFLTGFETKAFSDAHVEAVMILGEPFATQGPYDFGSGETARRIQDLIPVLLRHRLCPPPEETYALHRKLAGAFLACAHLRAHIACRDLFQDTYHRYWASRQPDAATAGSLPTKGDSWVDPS
Chain of NEK3 (P51956 whole entry): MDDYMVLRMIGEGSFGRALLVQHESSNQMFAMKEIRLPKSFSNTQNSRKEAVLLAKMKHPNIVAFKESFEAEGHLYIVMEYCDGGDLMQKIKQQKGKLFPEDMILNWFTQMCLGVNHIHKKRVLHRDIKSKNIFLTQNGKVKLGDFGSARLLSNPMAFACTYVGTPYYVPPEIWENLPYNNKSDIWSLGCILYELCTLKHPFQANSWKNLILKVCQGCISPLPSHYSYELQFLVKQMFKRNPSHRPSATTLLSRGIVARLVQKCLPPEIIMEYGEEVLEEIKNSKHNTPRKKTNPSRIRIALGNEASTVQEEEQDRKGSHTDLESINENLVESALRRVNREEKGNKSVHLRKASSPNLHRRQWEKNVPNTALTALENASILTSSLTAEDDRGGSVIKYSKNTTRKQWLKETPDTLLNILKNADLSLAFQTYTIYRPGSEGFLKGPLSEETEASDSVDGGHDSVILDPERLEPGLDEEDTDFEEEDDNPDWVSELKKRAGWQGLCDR
Chain of PIK4CB (Q9UBF8 whole entry): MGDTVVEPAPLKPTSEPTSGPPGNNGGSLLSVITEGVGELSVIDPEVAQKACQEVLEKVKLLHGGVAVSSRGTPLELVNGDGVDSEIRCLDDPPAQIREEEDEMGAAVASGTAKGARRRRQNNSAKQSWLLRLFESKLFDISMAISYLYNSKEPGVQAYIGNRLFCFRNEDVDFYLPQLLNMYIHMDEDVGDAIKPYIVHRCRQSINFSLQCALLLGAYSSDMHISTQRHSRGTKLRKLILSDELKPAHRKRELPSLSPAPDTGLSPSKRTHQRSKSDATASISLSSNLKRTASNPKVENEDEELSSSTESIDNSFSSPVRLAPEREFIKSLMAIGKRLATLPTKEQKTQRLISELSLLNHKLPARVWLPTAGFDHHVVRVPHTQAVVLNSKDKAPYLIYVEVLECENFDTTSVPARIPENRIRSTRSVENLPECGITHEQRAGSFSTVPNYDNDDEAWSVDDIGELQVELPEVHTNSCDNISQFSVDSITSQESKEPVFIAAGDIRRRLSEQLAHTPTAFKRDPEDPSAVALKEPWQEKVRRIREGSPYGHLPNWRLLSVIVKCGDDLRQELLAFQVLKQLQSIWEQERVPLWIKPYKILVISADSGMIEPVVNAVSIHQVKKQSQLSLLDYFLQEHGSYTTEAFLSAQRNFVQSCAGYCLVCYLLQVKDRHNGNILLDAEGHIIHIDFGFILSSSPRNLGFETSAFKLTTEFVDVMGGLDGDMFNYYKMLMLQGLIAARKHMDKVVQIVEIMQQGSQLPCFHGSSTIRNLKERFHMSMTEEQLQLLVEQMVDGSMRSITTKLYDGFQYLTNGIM
Chain of SRMS (Q9H3Y6 whole entry): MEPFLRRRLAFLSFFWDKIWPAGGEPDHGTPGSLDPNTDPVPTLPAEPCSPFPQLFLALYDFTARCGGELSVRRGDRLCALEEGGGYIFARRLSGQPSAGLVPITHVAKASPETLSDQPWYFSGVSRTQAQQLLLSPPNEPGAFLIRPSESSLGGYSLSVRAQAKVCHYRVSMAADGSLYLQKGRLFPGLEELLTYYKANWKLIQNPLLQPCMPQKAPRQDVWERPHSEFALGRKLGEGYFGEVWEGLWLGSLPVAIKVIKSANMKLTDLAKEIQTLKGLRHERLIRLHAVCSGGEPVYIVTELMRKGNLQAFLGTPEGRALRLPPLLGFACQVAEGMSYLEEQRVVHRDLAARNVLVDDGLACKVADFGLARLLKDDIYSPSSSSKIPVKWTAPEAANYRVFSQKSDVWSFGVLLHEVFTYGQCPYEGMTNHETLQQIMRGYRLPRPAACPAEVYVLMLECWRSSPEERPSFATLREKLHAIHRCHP
Chain of CHEK2 (O96017 whole entry): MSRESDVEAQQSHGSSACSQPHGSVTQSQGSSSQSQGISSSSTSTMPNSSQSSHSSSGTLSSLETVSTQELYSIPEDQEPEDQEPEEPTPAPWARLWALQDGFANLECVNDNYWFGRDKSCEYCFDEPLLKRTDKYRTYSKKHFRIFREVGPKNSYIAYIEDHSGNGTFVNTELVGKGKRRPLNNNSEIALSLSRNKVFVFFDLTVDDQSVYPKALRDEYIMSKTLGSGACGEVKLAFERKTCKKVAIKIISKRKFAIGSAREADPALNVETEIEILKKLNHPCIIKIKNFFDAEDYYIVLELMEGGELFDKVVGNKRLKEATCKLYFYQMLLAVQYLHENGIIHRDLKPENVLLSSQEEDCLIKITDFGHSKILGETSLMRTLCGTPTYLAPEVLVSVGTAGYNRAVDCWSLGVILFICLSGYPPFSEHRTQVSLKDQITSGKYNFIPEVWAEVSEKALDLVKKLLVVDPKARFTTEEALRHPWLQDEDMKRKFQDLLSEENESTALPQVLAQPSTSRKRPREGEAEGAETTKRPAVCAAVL
Chain of ADCK3 (Q8NI60 163-647): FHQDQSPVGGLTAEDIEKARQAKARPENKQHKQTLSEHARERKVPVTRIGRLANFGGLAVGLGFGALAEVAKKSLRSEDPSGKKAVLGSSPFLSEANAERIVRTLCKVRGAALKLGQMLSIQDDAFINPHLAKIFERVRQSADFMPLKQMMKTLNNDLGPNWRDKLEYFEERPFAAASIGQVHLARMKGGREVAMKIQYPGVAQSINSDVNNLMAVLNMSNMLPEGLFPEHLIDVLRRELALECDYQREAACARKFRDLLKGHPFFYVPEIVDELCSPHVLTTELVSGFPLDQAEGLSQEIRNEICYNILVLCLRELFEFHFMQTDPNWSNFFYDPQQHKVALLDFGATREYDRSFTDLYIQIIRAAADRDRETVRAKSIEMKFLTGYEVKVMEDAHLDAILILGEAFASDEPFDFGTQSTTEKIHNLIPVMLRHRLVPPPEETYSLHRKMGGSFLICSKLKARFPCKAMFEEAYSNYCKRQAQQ
Chain of MST2 (Q13188 whole entry): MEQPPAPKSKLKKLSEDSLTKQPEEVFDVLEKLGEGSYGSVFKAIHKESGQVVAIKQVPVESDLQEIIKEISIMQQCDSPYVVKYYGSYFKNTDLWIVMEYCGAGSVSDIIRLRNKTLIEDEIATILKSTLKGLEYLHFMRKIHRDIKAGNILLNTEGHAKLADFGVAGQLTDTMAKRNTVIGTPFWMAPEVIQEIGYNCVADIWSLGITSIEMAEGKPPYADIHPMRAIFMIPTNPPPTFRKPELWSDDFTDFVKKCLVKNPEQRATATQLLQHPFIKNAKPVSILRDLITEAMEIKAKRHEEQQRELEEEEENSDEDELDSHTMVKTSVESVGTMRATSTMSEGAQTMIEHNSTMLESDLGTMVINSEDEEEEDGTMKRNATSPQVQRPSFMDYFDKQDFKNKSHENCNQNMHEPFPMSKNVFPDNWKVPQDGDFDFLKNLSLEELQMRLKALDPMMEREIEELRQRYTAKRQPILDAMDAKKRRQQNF

Q: What does the source list for CN(C[C@@H](O)Cc1ccccc1)C(=O)c1cncc(C#Cc2cnn(C(F)F)c2)c1 [Example 2, (S)-5-((1-(difluoromethyl)-1H-pyrazol-4-yl)ethynyl)-N-(2-hydroxy-3-phenylpropyl)-N-methylnicotinamide]?
A: remaining activity at 0.1 µM ([1]; ZAK): 100%; remaining activity at 0.1 µM ([2]; SRMS): 100%; remaining activity at 0.1 µM ([3]; ERBB2): 70%; remaining activity at 0.1 µM ([4]; CASK): 99%; remaining activity at 0.1 µM ([5]; FAK): 100%; remaining activity at 0.1 µM ([6]; PIK4CB): 100%; remaining activity at 0.1 µM ([7]; TESK1): 100%; remaining activity at 0.1 µM ([8]; PIM2): 95%; remaining activity at 0.1 µM ([9]; RSK1(Kin.Dom.1-N-terminal)): 96%; remaining activity at 0.1 µM ([10]; VRK2): 91%; remaining activity at 0.1 µM ([11]; TIE1): 100%; remaining activity at 0.1 µM ([12]; PRKG2): 100%; remaining activity at 0.1 µM ([13]; ADCK3): 100%; remaining activity at 0.1 µM ([14]; TSSK3): 82%; remaining activity at 0.1 µM ([15]; TBK1): 79%; remaining activity at 0.1 µM ([16]; NEK3): 96%; remaining activity at 0.1 µM ([17]; FLT3(N841I)): 99%; remaining activity at 0.1 µM ([18]; FLT1): 100%; remaining activity at 0.1 µM ([19]; WNK3): 100%; remaining activity at 0.1 µM ([20]; MST2): 100%; remaining activity at 0.1 µM ([21]; SYK): 97%; remaining activity at 0.1 µM ([22]; CAMK2A): 97%; remaining activity at 0.1 µM ([23]; ADCK4): 100%; remaining activity at 0.1 µM ([24]; EGFR(G719S)): 100%; remaining activity at 0.1 µM ([25]; ALK): 100%; remaining activity at 0.1 µM ([26]; CHEK2): 100%; remaining activity at 0.1 µM ([27]; CSNK1A1): 100%; remaining activity at 0.1 µM ([28]; RIOK2): 95%; remaining activity at 0.1 µM ([29]; PKN1): 91%

Q: How did the remaining activity at 0.1 µM [1] turn out when CN(C[C@H](Cc1ccccc1)OP(=O)(O)O)C(=O)c1cncc(C#Cc2cnn(C(F)F)c2)c1 [Example 19, (S)-1-(5-((1-(difluoromethyl)-1H-pyrazol-4-yl)ethynyl)-N-methylnicotinamido)-3-phenylpropan-2-yl dihydrogen phosphate] was run?
A: 100%

Q: What about the remaining activity at 0.1 µM [2] of the same compound?
A: 96%

Q: And the remaining activity at 0.1 µM [3]?
A: 65%

Q: And the remaining activity at 0.1 µM [4]?
A: 94%

Q: What about the remaining activity at 0.1 µM [5] of the same compound?
A: 100%

Q: What about the remaining activity at 0.1 µM [6] of the same compound?
A: 98%

Q: And the remaining activity at 0.1 µM [7]?
A: 100%

Q: What about the remaining activity at 0.1 µM [8] of the same compound?
A: 100%

Q: And the remaining activity at 0.1 µM [9]?
A: 100%

Q: What about the remaining activity at 0.1 µM [10] of the same compound?
A: 95%

Q: And the remaining activity at 0.1 µM [11]?
A: 100%

Q: And the remaining activity at 0.1 µM [12]?
A: 97%

Q: What about the remaining activity at 0.1 µM [13] of the same compound?
A: 100%

Q: And the remaining activity at 0.1 µM [14]?
A: 100%

Q: And the remaining activity at 0.1 µM [15]?
A: 84%

Q: What about the remaining activity at 0.1 µM [16] of the same compound?
A: 96%

Q: And the remaining activity at 0.1 µM [17]?
A: 96%

Q: And the remaining activity at 0.1 µM [18]?
A: 100%

Q: What about the remaining activity at 0.1 µM [19] of the same compound?
A: 100%

Q: What about the remaining activity at 0.1 µM [20] of the same compound?
A: 99%

Q: And the remaining activity at 0.1 µM [21]?
A: 93%

Q: What about the remaining activity at 0.1 µM [22] of the same compound?
A: 100%

Q: What about the remaining activity at 0.1 µM [23] of the same compound?
A: 100%

Q: And the remaining activity at 0.1 µM [24]?
A: 72%

Q: What about the remaining activity at 0.1 µM [25] of the same compound?
A: 100%

Q: And the remaining activity at 0.1 µM [26]?
A: 100%

Q: What about the remaining activity at 0.1 µM [27] of the same compound?
A: 92%

Q: And the remaining activity at 0.1 µM [28]?
A: 95%

Q: And the remaining activity at 0.1 µM [29]?
A: 100%
